# Measurements published in ChEMBL document CHEMBL1201862, “PubChem BioAssay data set” (2004).
# Activity calls are given as the source filed them.
# Key:
# [1] = cytotoxicity toward HT-29 cells – cell-based, CellTiter-Glo luminescence, IC50, dose response (AID 1117330); format: functional
# [2] = cytotoxicity toward Colo320 cells – cell-based, CellTiter-Glo luminescence, IC50, dose response (AID 1117334); format: functional; settings: COLO 320
# [3] = HCT116 cell viability decrease, GSK3B pretreatment – CellTiter-Glo, IC50, dose response (AID 1117339); format: functional; settings: HCT-116
# [4] = Reduced DLD-1 viability, concentration-response, CellTiter-Glo luminescence (AID 1117352); format: functional
# [5] = CellTiter-Glo luminescence survival assay, SW480 colon tumor line, concentration-response curve, half-maximal inhibitory concentration (AID 1117338); format: functional
# [6] = RKO cell viability reduction, dose response, CellTiter-Glo luminescence (AID 1117322); format: functional
# [7] = cytotoxicity toward HCT116 cells – cell-based, CellTiter-Glo luminescence, IC50, dose response (AID 1117332); format: functional; settings: HCT-116
# Prothrombin = Prothrombin (Homo sapiens, UniProt P00734); test: Thrombin 1536 HTS Dose Response Confirmation. [Related pubchem assays: 1046 (Thrombin 1536 HTS; hits were confirmed in this assay)]; format: functional
# [8] = viability inhibitors of stage V gametocytes – luminescence, dose response (AID 1117278); format: functional, cell-based;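 further: gametocytes exposed to compound for 24 hours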
# [9] = viability loss in human Jurkat cells – cell-based, luminescence, cytotoxicity control for P. falciparum gametocyte viability project, dose response (AID 1117277); format: functional;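 further: potency reflects loss of cellular ATP meaning fewer viable cells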
# [10] = NIH-3T3 fibroblast cytotoxicity, dose response, cytotoxicity control, cell-based, fluorescence, Alamar Blue, secondary assay (AID 2327); format: functional;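 further: NIH-3T3 mouse fibroblasts cultured with fluconazole at 8 µg/mL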
# [11] = fluconazole-exposed Candida albicans growth modulators – fluorescence, retest, confirmation (AID 2467); format: functional, cell-based
# INS1 = test: INS-1E survival protection against cytokine death – cell-based, luminescence, retest, dose response (AID 449756); format: functional; settings: Rattus norvegicus;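 further: cell death triggered by IL-1 beta plus TNF-alpha plus IFN-gamma mixture; protective hits raise ATP signal compared with cytokine alone wells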
# [12] = viability loss in HepG2 hepatoma cells – cell-based, ATP luminescence, cherry-pick, activator set 2, cytotoxicity control, dose response (AID 1053143); format: functional
# Aminopeptidase N = molecular target: T1, Aminopeptidase N (Plasmodium falciparum FcB1/Columbia, UniProt O96935); test: malaria alanyl aminopeptidase activity blockers – biochemical, fluorogenic H-Leu-NHMec substrate, 1536-well (AID 1445); set-up: species or system Plasmodium falciparum 3D7, 3D7
# T1 sequence (O96935 whole entry): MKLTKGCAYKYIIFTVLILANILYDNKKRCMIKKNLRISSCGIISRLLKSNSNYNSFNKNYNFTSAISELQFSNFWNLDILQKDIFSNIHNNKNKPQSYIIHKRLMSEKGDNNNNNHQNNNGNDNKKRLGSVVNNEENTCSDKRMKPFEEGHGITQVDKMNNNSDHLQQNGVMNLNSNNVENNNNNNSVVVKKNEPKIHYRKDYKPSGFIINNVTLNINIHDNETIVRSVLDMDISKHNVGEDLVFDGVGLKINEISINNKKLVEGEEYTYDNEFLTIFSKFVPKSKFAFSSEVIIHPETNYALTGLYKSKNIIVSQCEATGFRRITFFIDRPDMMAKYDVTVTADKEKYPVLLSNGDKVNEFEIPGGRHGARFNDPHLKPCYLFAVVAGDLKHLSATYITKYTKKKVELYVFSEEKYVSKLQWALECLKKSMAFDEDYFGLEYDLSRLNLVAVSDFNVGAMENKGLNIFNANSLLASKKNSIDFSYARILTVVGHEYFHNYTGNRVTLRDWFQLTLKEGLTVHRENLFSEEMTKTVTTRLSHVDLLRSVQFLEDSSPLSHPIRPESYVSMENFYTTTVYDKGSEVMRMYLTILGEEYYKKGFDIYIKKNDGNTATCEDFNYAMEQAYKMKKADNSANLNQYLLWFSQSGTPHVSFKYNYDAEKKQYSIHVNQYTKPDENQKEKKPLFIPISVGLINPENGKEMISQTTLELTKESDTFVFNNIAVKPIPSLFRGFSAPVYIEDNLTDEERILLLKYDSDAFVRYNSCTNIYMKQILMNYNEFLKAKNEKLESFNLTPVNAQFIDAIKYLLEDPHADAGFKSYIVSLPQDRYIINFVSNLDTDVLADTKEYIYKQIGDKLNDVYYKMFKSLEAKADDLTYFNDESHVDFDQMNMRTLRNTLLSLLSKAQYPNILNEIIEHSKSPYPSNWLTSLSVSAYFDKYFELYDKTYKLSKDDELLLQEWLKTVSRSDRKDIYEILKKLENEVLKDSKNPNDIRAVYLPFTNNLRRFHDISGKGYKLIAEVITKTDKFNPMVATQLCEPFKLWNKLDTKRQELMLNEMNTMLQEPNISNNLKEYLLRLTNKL
# [13] = reduction of Shn3 3'UTR-driven luciferase in osteoblasts – cell-based, Clone20 osteoblasts, firefly luciferase, cherry-picked, dose response (AID 624132); format: functional;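 further: firefly luciferase luminescence from reporter carrying the Shn3 3'UTR in osteoblasts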
# [14] = blockade of melanocortin 4 receptor signaling – cell-based, plate reader, cherry pick, counter-screen for LGR2 antagonist project, dose response (AID 743444); format: functional;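 further: transfected HEK 293 cells stimulated with alpha-MSH peptide; potency of inhibitors of the alpha-MSH evoked signal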
# [15] = molecular target: T2, Heat shock factor protein 1 (Mus musculus, UniProt P38532); test: decrease of HSF1-responsive luciferase luminescence – cell-based, NIH3T3, dose retest, confirmation (AID 2382); format: functional;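 further: NIH3T3 fibroblasts with HSF1-driven luciferase reporter stressed by proteasome inhibitor MG132; luminescence from HSF1-driven luciferase expression after 8 hours of MG132 stress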
# T2 sequence (P38532 whole entry): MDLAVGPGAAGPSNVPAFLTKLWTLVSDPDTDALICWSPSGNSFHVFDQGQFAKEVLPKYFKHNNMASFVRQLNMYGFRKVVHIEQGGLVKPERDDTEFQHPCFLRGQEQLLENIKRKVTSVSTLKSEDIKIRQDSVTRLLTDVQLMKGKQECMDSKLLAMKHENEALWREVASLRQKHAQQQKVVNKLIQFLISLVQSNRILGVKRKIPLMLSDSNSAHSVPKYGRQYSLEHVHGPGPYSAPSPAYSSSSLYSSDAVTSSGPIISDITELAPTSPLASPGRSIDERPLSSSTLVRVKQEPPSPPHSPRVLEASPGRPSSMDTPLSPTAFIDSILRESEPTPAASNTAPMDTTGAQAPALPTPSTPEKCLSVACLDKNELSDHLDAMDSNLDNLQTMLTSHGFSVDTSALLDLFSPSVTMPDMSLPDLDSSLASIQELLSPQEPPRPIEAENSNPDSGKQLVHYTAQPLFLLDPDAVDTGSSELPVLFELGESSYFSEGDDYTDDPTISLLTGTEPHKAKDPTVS
# [16] = loss of viability in HepG2 cells – cell-based, CellTiter-Glo, cherry-picked, cytotoxicity control for Shn3 inhibitor project, dose response (AID 624134); format: functional
# [17] = viability loss in HEK293 cells – cell-based, plate reader, cherry-picked samples, cytotoxicity control, dose response (AID 743446); format: functional
# [18] = toxicity toward HepG2 liver cells – cell-based, plate reader, cherry-pick, antagonist series, cytotoxicity control, dose response (AID 743416); format: functional
# [19] = general cell-killing toxicity readout – plate reader, dry powder samples, cytotoxicity control for PAX8 inhibitor project, dose response (AID 743021); format: functional, cell-based
# [20] = Luminescence Cell-Based Dose Retest to Confirm Inhibitors of Cancer Stem Cells. [Related pubchem assays (depositor defined):AID2717, AID2721]; format: functional, Homo sapiens; settings: Homo sapiens
# [21] = A549 cell cytotoxicity, dose response, cytotoxicity control, plate reader, cherry-pick, antagonist series (AID 743412); format: functional, cell-based
# Paired box protein Pax-8 = Paired box protein Pax-8 (Homo sapiens, UniProt Q06710); test: PAX8 transcriptional activity inhibition in RMG-I – RMG-I cells, luciferase, cherry-pick, dose response (AID 687027); format: functional, cell-based;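 further: luciferase reporter driven by Pax8 target thyroperoxidase promoter measured by SteadyGlo luminescence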
# Chain of Paired box protein Pax-8 (Q06710 whole entry): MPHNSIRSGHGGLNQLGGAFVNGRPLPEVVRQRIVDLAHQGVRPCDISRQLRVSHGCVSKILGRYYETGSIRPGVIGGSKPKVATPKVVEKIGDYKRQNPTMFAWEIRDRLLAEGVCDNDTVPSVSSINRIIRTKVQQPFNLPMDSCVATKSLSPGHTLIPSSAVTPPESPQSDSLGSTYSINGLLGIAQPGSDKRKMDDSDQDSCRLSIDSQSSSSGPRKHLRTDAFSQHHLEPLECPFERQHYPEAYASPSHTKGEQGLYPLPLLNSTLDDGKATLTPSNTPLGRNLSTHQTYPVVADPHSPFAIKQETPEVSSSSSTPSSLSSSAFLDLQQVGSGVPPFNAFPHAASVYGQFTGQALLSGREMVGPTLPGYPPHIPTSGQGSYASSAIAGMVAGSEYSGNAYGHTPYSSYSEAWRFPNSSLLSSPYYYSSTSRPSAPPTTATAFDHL
# [22] = blockers of bursicon-stimulated LGR2 cAMP reporter – cell-based, HEK293, CRE-luciferase reporter, cherry pick, set 2, dose response (AID 743343); format: functional;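 further: transfected cells were stimulated with diluted bursicon conditioned medium after compound addition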
# [23] = non-specific 3'UTR reporter inhibition in Clone20-Shn3RL – cell-based, Renilla luciferase, cherry-picked, counter-screen for Shn3 inhibitor project, dose response (AID 624133); format: functional
# [24] = molecular target: T3, Microphthalmia-associated transcription factor (Homo sapiens, UniProt O75030); test: reducers of TRPM1 reporter luminescence, concentration series – cell-based, SK-MEL-5, cherry-picked, set 3, MITF inhibitor project, dose response (AID 493073); format: functional;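 further: SK-MEL-5 melanoma cells with luciferase driven by the MITF target TRPM1 promoter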
# T3 sequence (O75030 whole entry): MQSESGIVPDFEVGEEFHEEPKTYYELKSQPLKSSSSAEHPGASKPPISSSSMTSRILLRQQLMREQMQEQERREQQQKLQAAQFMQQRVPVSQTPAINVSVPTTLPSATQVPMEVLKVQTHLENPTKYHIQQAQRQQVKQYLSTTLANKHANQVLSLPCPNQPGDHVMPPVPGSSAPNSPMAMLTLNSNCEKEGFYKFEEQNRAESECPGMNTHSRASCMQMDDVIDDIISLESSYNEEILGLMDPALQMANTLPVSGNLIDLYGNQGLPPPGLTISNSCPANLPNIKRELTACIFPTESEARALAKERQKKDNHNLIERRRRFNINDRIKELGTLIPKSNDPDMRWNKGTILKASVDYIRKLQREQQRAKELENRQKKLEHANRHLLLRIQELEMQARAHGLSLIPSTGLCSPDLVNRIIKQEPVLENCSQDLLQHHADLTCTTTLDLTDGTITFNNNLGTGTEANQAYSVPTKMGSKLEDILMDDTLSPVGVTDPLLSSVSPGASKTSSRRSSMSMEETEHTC
# [25] = IC50 of Artemis nuclease activity blockers – biochemical, fluorescence intensity, dose response (AID 720701); format: functional;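 further: Artemis endonuclease enzyme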
# [26] = Luminescence-based cell-based high throughput dose response assay to identify activators of the DAF-12 from the parasite S. stercoralis (ssDAF-12).; format: functional
# [27] = molecular target: Endoplasmic reticulum aminopeptidase 1 (Homo sapiens, UniProt Q9NZ08); test: inhibition of human ERAP1 enzyme activity – biochemical, cherry-pick, set 2, plate reader, dose response (AID 743314)
# Chain of Endoplasmic reticulum aminopeptidase 1 (Q9NZ08 whole entry): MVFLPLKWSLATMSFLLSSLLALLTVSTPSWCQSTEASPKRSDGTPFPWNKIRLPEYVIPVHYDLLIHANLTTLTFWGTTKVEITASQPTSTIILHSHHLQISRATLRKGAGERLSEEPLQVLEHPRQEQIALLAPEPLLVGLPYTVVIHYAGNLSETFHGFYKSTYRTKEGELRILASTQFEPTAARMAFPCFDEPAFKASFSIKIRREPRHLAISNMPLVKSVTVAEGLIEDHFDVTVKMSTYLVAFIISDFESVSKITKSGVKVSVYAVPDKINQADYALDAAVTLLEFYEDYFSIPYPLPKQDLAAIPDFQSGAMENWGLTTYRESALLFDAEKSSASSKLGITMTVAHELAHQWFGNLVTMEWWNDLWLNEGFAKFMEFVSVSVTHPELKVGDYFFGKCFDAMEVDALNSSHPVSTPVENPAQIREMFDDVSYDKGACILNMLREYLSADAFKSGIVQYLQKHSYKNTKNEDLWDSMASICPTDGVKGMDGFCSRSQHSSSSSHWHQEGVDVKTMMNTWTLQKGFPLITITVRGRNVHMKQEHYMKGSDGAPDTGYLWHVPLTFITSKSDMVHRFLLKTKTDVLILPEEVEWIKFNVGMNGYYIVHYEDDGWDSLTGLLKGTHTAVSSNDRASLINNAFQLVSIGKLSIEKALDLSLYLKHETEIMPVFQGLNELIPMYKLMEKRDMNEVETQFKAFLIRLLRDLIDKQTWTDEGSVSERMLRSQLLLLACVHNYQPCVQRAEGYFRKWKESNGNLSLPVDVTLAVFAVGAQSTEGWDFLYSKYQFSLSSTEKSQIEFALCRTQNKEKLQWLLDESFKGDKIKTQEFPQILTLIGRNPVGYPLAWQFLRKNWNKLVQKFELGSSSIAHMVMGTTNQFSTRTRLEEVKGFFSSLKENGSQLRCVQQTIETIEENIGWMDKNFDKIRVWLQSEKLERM
# Kallikrein-7 = Kallikrein-7 (Homo sapiens, UniProt P49862); test: Fluorescence Intensity-based biochemical primary high throughput dose response assay to identify activators of kallikrein-7 (K7) zymogen.
# Chain of Kallikrein-7 (P49862 whole entry): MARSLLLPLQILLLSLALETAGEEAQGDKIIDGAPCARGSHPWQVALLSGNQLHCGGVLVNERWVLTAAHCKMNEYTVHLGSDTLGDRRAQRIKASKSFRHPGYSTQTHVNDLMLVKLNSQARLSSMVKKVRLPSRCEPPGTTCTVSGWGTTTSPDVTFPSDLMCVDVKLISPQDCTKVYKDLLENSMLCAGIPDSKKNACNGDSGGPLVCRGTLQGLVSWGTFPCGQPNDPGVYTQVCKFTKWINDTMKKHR
compound,measurement,setting,value
Cc1cc(-c2ccc(N=Nc3c(S(=O)(=O)O)cc4cc(S(=O)(=O)O)cc(N)c4c3O)c(C)c2)ccc1N=Nc1c(S(=O)(=O)O)cc2cc(S(=O)(=O)O)cc(N)c2c1O,IC50,[1],> 20 µM (inactive)
same,IC50,[2],> 20 µM (inactive)
same,IC50,[3],> 20 µM (inactive)
same,IC50,[4],> 20 µM (inactive)
same,IC50,[5],> 20 µM (inactive)
same,IC50,[6],> 20 µM (inactive)
same,IC50,[7],> 20 µM (inactive)
COc1ccccc1C(=O)n1nc(-c2ccccc2)nc1NCc1ccco1,IC50,Prothrombin,0.223 µM (active)
Cc1ccc(S(=O)(=O)N2CCN(Cc3ccccc3)CC2)c(C)c1N(C)S(=O)(=O)c1ccccc1,IC50,[8],> 109 µM (inactive)
same,IC50,[9],> 83.3 µM (inactive)
O=C(Oc1c(CN2CCOCC2)cc(Cl)c2cccnc12)c1cccs1,EC50,[10],> 160 µM (inactive)
same,EC50,[11],2.63 µM (active)
same,AC50,INS1,4.67 µM (active)
same,AC50,[12],26 µM (active)
same,IC50,Aminopeptidase N,72.3 µM (active)
O=C(Nc1ccc2nc3n(c(=O)c2c1)CCCCC3)c1cc([N+](=O)[O-])ccc1F,AC50,[13],14.1 µM (active)
same,AC50,[14],11.5 µM (active)
same,EC50,[15],> 195 µM (not active)
same,AC50,[16],42.2 µM (active)
same,AC50,[17],14.7 µM (active)
same,AC50,[18],18.3 µM (active)
same,AC50,[19],42.6 µM (active)
same,AC50,[20],5.51 µM (active)
same,AC50,[21],17.5 µM (active)
same,AC50,Paired box protein Pax-8,14.3 µM (active)
same,AC50,[22],6.52 µM (active)
same,AC50,[23],9.99 µM (active)
same,AC50,[24],10.7 µM (active)
CCN1CCc2nc(NC(=O)C(c3ccccc3)c3ccccc3)sc2C1,IC50,[25],> 20 µM (inactive)
CC(C)(C)C1CCC(=NN=C(S)Nc2cccnc2)CC1 (centres undefined),IC50,[26],> 67.5 µM (inactive)
COc1cccc(OC)c1-c1nn2c(-c3cc(-c4ccccc4)[nH]n3)nnc2s1,IC50,[25],1.96 µM (active)
CCC(=O)NC(=Nc1ccc(OC)cc1)Nc1nc(C)cc(C)n1,IC50,Prothrombin,1.23 µM (active)
COC(=O)Cc1c(C)c2ccc(O)c(CNCc3ccc(OC)c(OC)c3)c2oc1=O,AC50,[27],3.51 µM (active)
same,EC50,Kallikrein-7,> 0.858 µM (active)
